ChEMBL document CHEMBL1158981, “An Unusual Sulfur-Containing Diketopiperazine from the Bermudian Sponge Tedania ignis” (J Nat Prod, 1991)

Test system: Artemia
Assay: Toxicity against brine shrimp
Type: organism-based
Details: in vivo

## O=C1[C@@H]2CCCN2C(=O)[C@H]2CSCN12
  Activity: Non-toxic
